Laboratory results: PMC12136057, “Structural characterization of the ABC transporter DppABCDF in Escherichia coli reveals insights into dipeptide acquisition” (PLOS Biology, 2025)
Peptide text beside a SMILES is read from it.

Tests used:
DppA = biological target: T1, DppA (Escherichia coli, UniProt P23847); assay: isothermal titration calorimetry; assay type: binding; details: read-out: affinity
T1 construct: soluble periplasmic protein, His-tagged, Ni-NTA with guanidine wash to remove endogenous peptides; expressed in E. coli
T1 sequence (P23847 29-535): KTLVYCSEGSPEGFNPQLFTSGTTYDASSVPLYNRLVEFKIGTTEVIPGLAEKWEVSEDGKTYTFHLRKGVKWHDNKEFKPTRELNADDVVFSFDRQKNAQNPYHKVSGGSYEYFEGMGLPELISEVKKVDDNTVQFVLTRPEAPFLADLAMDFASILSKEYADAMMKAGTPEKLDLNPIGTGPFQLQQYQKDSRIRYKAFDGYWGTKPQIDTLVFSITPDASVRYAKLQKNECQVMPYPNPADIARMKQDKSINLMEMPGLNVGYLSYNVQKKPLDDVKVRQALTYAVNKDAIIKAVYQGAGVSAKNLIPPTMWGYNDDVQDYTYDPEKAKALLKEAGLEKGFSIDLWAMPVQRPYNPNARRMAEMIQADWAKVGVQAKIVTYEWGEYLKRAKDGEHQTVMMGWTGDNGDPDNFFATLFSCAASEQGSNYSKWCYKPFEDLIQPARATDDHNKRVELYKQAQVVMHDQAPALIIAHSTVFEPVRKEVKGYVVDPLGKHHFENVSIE

[1] = system: T2, DppABCDF full transporter; assay: malachite green phosphate ATPase assay, nanodiscs; assay type: biochemical, Escherichia coli; details: DppA added, Mg2+, pH 7.5, 37 °C; with or without Ala-Ala
T2 construct: gene dppD; heteropentamer; structure: DppA C-terminal His-tag and Strep tag, GDN; ATPase: DppBCDF in MSP1E3D1/POPG nanodiscs plus separately purified DppA; Dipeptide transport system permease protein DppB; Dipeptide transport system permease protein DppC

[2] = biological target: T3, DppABCDF full transporter (Escherichia coli, UniProt P0AAG0+P37313, P0AAG0:E179Q/P37313:E187Q); assay: cryo-EM structure of the complex ([…] Å); assay type: binding; details: 2 mM ATPγS, 2 mM MgCl2, on ice; outward-facing; two molecules at the DppD-DppF interface
T3 construct: gene dppD; heteropentamer; structure: DppA C-terminal His-tag and Strep tag, GDN; ATPase: DppBCDF in MSP1E3D1/POPG nanodiscs plus separately purified DppA; Dipeptide transport system permease protein DppB; Dipeptide transport system permease protein DppC

[3] = biological target: T4, DppBCDF translocator (cluster site of DppD) (Escherichia coli, UniProt P0AAG0); assay: cryo-EM structure of the complex ([…] Å); assay type: binding; details: cluster in DppD, ligands Cys284, Cys290, Cys297, Cys315; 2 mM DTT
T4 construct: same complex as P2: heterotetramer, C-terminal Strep-tag II, expressed in E. coli, GDN detergent; with Dipeptide transport system permease protein DppB; Dipeptide transport system permease protein DppC

[4] = biological target: T5, DppBCDF translocator (nucleotide and cluster site of DppF) (Escherichia coli, UniProt P37313); assay: cryo-EM structure of the complex ([…] Å); assay type: binding; details: cluster in DppF, ligands Cys293, Cys299, Cys306, Cys323; 2 mM DTT
T5 construct: heterotetramer, C-terminal Strep-tag II, expressed in E. coli, DDM then GDN detergent; with Dipeptide transport system permease protein DppB; Dipeptide transport system permease protein DppC
T5 sequence (P37313 whole entry): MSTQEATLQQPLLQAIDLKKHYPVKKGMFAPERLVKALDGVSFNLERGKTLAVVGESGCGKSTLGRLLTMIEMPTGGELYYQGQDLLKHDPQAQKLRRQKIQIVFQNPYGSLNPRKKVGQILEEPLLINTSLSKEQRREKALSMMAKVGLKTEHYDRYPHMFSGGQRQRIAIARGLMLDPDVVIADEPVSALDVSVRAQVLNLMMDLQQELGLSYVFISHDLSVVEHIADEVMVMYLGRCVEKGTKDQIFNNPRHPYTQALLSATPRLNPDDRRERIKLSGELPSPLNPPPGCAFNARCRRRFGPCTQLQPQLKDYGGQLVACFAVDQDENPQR
T5 sequence (P0AEF8 whole entry partner): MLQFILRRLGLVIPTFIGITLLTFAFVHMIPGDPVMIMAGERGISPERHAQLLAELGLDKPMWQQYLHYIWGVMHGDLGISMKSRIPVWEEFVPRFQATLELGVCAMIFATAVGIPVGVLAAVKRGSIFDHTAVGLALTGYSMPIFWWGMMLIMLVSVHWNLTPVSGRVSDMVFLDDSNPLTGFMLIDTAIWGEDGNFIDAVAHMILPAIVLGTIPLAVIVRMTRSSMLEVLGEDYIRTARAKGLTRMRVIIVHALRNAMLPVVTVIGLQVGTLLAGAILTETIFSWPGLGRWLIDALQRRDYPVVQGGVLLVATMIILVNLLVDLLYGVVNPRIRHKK
T5 sequence (P0AEG1 whole entry partner): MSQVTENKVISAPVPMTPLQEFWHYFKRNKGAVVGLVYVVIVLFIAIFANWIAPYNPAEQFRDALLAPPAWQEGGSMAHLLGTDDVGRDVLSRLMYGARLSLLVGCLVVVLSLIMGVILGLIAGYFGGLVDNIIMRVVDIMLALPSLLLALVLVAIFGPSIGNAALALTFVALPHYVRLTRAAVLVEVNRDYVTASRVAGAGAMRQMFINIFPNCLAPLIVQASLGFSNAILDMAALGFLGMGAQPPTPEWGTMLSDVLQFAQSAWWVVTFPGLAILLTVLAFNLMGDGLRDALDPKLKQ
T5 sequence (P0AAG0 whole entry partner): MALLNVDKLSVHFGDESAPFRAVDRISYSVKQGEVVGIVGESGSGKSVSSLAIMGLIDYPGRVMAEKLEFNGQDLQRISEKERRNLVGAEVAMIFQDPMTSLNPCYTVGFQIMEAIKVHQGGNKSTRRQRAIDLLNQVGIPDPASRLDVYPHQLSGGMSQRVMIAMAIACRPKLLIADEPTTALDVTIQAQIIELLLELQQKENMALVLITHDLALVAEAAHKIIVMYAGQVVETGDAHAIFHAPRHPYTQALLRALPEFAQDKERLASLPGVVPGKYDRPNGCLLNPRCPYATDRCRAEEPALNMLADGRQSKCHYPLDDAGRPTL

T4 sequence (P0AAG0 whole entry): as the sequence (P0AAG0 whole entry partner) above
T4 sequence (P0AEF8 whole entry partner): as the sequence (P0AEF8 whole entry partner) above
T4 sequence (P0AEG1 whole entry partner): as the sequence (P0AEG1 whole entry partner) above
T4 sequence (P37313 whole entry partner): as the sequence (P37313 whole entry) above
T2 sequence (P0AAG0 whole entry, one chain of several): as the sequence (P0AAG0 whole entry partner) above
T2 sequence (P0AEF8 whole entry, one chain of several, further chain): as the sequence (P0AEF8 whole entry partner) above
T2 sequence (P0AEG1 whole entry, one chain of several, further chain): as the sequence (P0AEG1 whole entry partner) above
T2 sequence (P37313 whole entry, one chain of several, further chain): as the sequence (P37313 whole entry) above
T3 sequence (P0AAG0 whole entry E179Q, one chain of several): as the sequence (P0AAG0 whole entry partner) above, with E179Q counted along it
T3 sequence (P37313 whole entry E187Q, one chain of several): as the sequence (P37313 whole entry) above, with E187Q counted along it
T3 sequence (P0AEF8 whole entry partner, one chain of several): as the sequence (P0AEF8 whole entry partner) above
T3 sequence (P0AEG1 whole entry partner, one chain of several): as the sequence (P0AEG1 whole entry partner) above

With `C[C@H](N)C(=O)N[C@@H](C)C(=O)O` [AA, Ala-Ala] (H-Ala-Ala-OH) the Kd (DppA) was roughly 13.9 nM.

In the case of `Nc1ncnc2c1ncn2[C@@H]1O[C@H](COP(=O)(O)OP(=O)(O)OP(=O)(O)O)[C@@H](O)[C@H]1O` [ATP], the ATPase activity [1] is reported as “high ATPase activity is observed when DppA was supplied in the assay”.

With `Nc1ncnc2c1ncn2[C@@H]1O[C@H](COP(=O)(O)OP(=O)(O)OP(O)(O)=S)[C@@H](O)[C@H]1O` [ATPγS] the “cryo-EM structure of the complex (2.73 Å)” value [2] was “two ATPγS molecules bound at the interface of the two NBDs”.

`CC(C)C[C@H](NC(=O)CN)C(=O)O` [GL, Gly-Leu] gave a Kd (DppA) of roughly 2200 nM.

`[S]12[Fe]3[S]4[Fe]1[S]1[Fe]2[S]3[Fe]41` [[4Fe-4S] cluster] was tested, and the “cryo-EM structure of the complex (3.2 Å)” value [3] was “The [4Fe-4S] cluster in DppD is coordinated by Cys284, Cys290, Cys297 and Cys315” and the “cryo-EM structure of the complex (3.2 Å)” value [4] was “the [4Fe-4S] cluster in DppF is coordinated by Cys293, Cys299, Cys306 and Cys323”.
